In article PMC9307114, “Discovery and SAR analysis of phenylbenzo[d][1,3]dioxole-based proprotein convertase subtilisin/kexin type 9 inhibitors” (Journal of Enzyme Inhibition and Medicinal Chemistry, 2022):

Legend:
PCSK9/LDLR PPI = PCSK9/LDLR PPI (Homo sapiens, UniProt Q8NBP7); assay: PCSK9-LDLR TR-FRET assay (PCSK9/LDLR PPI inhibitory screening); format: binding; conditions: for inhibition at 10 µM: mean of three experiments, read-out: PCSK9 percentage inhibitory rate; for IC50: dose-dependent IC50 plot, Figure 3, read-out: PCSK9 IC50 (inhibition of PCSK9/LDLR PPI)
PCSK9/LDLR PPI, sequence (Q8NBP7 153-692): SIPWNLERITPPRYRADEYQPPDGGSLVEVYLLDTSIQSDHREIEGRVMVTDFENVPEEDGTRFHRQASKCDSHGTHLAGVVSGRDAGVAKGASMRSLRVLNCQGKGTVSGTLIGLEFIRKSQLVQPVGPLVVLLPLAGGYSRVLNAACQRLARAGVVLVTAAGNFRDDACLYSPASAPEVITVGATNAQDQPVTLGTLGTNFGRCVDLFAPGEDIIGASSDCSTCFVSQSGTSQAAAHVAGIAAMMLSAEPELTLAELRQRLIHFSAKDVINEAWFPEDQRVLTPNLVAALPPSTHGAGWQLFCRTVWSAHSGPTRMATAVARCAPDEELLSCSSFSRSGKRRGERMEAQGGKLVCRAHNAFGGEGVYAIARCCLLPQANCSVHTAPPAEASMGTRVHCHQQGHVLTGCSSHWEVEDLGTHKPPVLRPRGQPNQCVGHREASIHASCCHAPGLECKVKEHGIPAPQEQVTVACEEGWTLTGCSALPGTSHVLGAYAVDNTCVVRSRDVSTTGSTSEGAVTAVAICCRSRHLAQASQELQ
PCSK9/LDLR PPI, sequence (Q8NBP7 31-152 partner limits assumed): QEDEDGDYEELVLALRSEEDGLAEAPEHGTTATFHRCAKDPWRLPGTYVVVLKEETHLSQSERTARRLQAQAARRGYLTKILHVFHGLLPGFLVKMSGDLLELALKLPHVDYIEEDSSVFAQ
Method: The PCSK9/LDLR time-resolved fluorescence resonance energy transfer (TR-FRET) assay was performed to evaluate the activity of synthesised compounds in inhibition of PCSK9-LDLR binding. The A series compounds were firstly synthesised for the PCSK9/LDLR PPI inhibitory test. […] Therefore, a group of A12 derivatives (B series) were synthesised with 4-chlorobenzyl substituted in the amino group and various substitutions introduced to the carboxylic group. […] To confirm whether the 4-chloromethyl group is essential for the PPI inhibitory activity, a new series of compounds (C series) were synthesised with the 4-chloromethyl group replaced by 4-methoxymethyl moiety. The inhibitory activity was observed, most likely resulting from the 4-methoxymethyl substitution (Table 3).
The compounds were dissolved in 100% DMSO; then 2 µL of the dilution was added to a 20 µL of reaction to keep […] in all of reactions. The binding reaction was conducted at room temperature. The reaction mixture in assay buffer contains PCSK9, the indicated amount of the inhibitor, ligand LDLR, and the reaction dyes. The reaction mixture was incubated for 120 min before detection of the TR-FRET signal. Fluorescence signals for both the donor and acceptor dyes were measured using a Tecan Infinite M1000 plate reader. TR-FRET was recorded as the ratio of the fluorescence of the acceptor and the donor dyes (acceptor/donor). The TR-FRET data were analysed using Graphpad Prism software.

HepG2 cells = assay: MTT assay on HepG2 cells; format: cell-based; conditions: Homo sapiens, mean of three experiments, read-out: HepG2 percentage inhibitory rate
[1] = tested on: LDLR level on the surface of HepG2 cells; assay: LDLR expression assay, In-Cell Western (ICW), in the presence of PCSK9; format: cell-based, human; conditions: HepG2 cells in the presence of PCSK9, compared with positive control SBC-115337
Method: LDLR is degraded in lysosomes by binding to PCSK9. Thus, inhibition of PCSK9/LDLR PPI could increase the LDLR level on the surface of hepatocytes. In the current study, human hepatic HepG2 cells were selected for the investigation of the active compounds for LDLR expression. SBC-115337, developed by Shifa Biomedical Corporation, as a potent PCSK9/LDLR PPI inhibitor was utilised as the positive control. All the synthesised compounds were evaluated to be safe with low inhibitory ratios at the dose of 10 µM in the MTT assay (Tables 1–3). Then, in cell western (ICW) assay was performed to detect the LDLR level on the surface of HepG2 cells.
The HepG2 cell line was grown in a humidified incubator with 5% CO2 at 37 °C and cultured in DMEM-High glucose medium with 10% (v/v) heat-inactivation foetal bovine serum, 2 mM L-glutamine and 100 U/ml penicillin-streptomycin. The expression level of LDLR in HepG2 cells was determined by In-Cell Western (ICW) Assay as described previously. Briefly, cells were plated in a 96-well plate (2 × 10^4 cells per well) and cultured for more than 24 h, followed by washing with PBS and starving overnight in DMEM without FBS. HepG2 cells were treated with 4.0 μg/ml PCSK9 (K9) alone and the tested compounds with the presence of 4.0 μg/ml of K9, and vehicle (PBS) for 8 h. Then cells were washed with PBS one time and fixed in 4% paraformaldehyde for 20 min. Cells were washed 5 times with PBS, then were blocked with 5% BSA in PBS for 1 h. LDLR monoclonal Antibody solution (1:1000 in 5% BSA in PBS, 50.0 μL/well) was incubated overnight at 4 °C. Subsequently, the cells were washed 5 times with PBS. Goat anti-mouse IgG-HRP secondary antibody solution (1:2000 in 5% BSA in PBS, 50.0 μL/well) was added and incubated 1 h at RT. Then cells were washed 5 times with PBS and added with TMB substrate, then incubated at RT until desired colour was developed. 50.0 μL/well of 2 M H2SO4 were added to stop the reaction and the absorbance at 450 nm was measured using a plate reader (EnSpire, Perkin Elmer Corporation).

[2] = tested on: LDL uptake of HepG2 cells; assay: Fluorescent LDL uptake assay in the presence of PCSK9; format: cell-based, human; conditions: PCSK9 treatment group 29.82%
Method: Extracellular LDL uptake assay was performed to evaluate the functional effects of PCSK9/LDLR PPI inhibition. The effects of active compounds in improving the capacity of HepG2 cells to uptake the fluorescent LDL were investigated using SBC-115337 as the positive control. […] The tested compound A12, B1, B3, B4 and B14 strengthened the ability of HepG2 cells to absorb LDL from 29.82% of the PCSK9 treatment group up to 32.78%, 33.29%, 39.58%, 36.24% and 42.41% at the doses of 5 µM, and 44.80%, 47.15%, 50.67%, 49.94 and 64.27% at the doses of 10 µM, respectively.
HepG2 cells (2 × 10^4 cells per well) were seeded in black 96-well plates and cultured for more than 24 h. The following day, cells were treated with 4.0 μg/ml K9 alone and the tested compounds with the presence of 4.0 μg/ml of K9, and vehicle (PBS) for 8 h. At the end of the treatments, the culture medium was replaced with 50.0 μl/well LDL-DyLight™ 550 working solution (Cayman Chemical Company, US). The cells were additionally incubated for 16 h at 37 °C. Then the cells were washed with PBS one time, then added PBS with 100.0 μl/well. The degree of LDL uptake was measured using a plate reader (EnSpire, Perkin Elmer Corporation) at excitation wavelengths 540 nm and emission wavelengths 570 nm.

[3] = 5 µM compound with 4.0 μg/ml PCSK9
[4] = 10 µM compound with 4.0 μg/ml PCSK9

Row | inhibition at 10 µM (PCSK9/LDLR PPI) | IC50 (PCSK9/LDLR PPI) | SMILES | inhibition at 10 µM (HepG2 cells) | effect on LDLR protein level (in words) [1] | LDL uptake of HepG2 cells [2, 3] | LDL uptake of HepG2 cells [2, 4]
1 | 45.1 ± 0.12% | 70.8 µM | COc1cc(NC(=O)c2ccc(-c3cc4c(cc3NC(=O)c3ccc(CCl)cc3)OCO4)cc2)cc(OC)c1OC [A12, 4-(Chloromethyl)-N-(6-(4-((3,4,5-trimethoxyphenyl)carbamoyl)phenyl)benzo[d][1,3]dioxol-5-yl)benzamide] | 7.85 ± 0.25% | restored the LDLR protein level in a dose dependent manner | 32.78% | 44.80%
2 | 54.3 ± 1.54% | 62.2 µM | O=C(Nc1ccc(Cl)cc1)c1ccc(-c2cc3c(cc2NC(=O)c2ccc(CCl)cc2)OCO3)cc1 [B1, 4-(Chloromethyl)-N-(6-(4-((4-chlorophenyl)carbamoyl)phenyl)benzo[d][1,3]dioxol-5-yl)benzamide] | 9.97 ± 0.39% | restored the LDLR protein level in a dose dependent manner | 33.29% | 47.15%
3 | 46.3 ± 2.77% | 23.4 µM | O=C(Nc1ccc(F)cc1)c1ccc(-c2cc3c(cc2NC(=O)c2ccc(CCl)cc2)OCO3)cc1 [B3, 4-(Chloromethyl)-N-(6-(4-((4-fluorophenyl)carbamoyl)phenyl)benzo[d][1,3]dioxol-5-yl)benzamide] | 8.09 ± 0.76% | restored the LDLR protein level in a dose dependent manner | 39.58% | 50.67%
4 | 4.07 ± 0.25% | – | O=C(Nc1cc2c(cc1-c1ccc(C(=O)N3CCN(c4ccc(F)cc4)CC3)cc1)OCO2)c1ccc(CCl)cc1 [B17, 4-(Chloromethyl)-N-(6-(4-(4-(4-fluorophenyl)piperazine-1-carbonyl)phenyl)benzo[d][1,3]dioxol-5-yl)benzamide] | 16.4 ± 1.18% | – | – | –
5 | 5.66 ± 0.02% | – | CCN1CCN(C(=O)c2ccc(-c3cc4c(cc3NC(=O)c3ccc(CCl)cc3)OCO4)cc2)CC1 [B18, 4-(Chloromethyl)-N-(6-(4-(4-ethylpiperazine-1-carbonyl)phenyl)benzo[d][1,3]dioxol-5-yl)benzamide] | 6.76 ± 0.26% | – | – | –
6 | 5.82 ± 0.31% | – | CC(C)N1CCN(C(=O)c2ccc(-c3cc4c(cc3NC(=O)c3ccc(CCl)cc3)OCO4)cc2)CC1 [B19, 4-(Chloromethyl)-N-(6-(4-(4-isopropylpiperazine-1-carbonyl)phenyl)benzo[d][1,3]dioxol-5-yl)benzamide] | 8.38 ± 0.81% | – | – | –
7 | 3.15 ± 0.13% | – | CC(C)NC(=O)c1ccc(-c2cc3c(cc2NC(=O)c2ccc(CCl)cc2)OCO3)cc1 [B20, 4-(Chloromethyl)-N-(6-(4-(isopropylcarbamoyl)phenyl)benzo[d][1,3]dioxol-5-yl)benzamide] | 9.55 ± 0.43% | – | – | –
8 | 21.6 ± 1.67% | – | COCc1ccc(C(=O)Nc2cc3c(cc2-c2ccc(C(=O)Nc4cc(OC)cc(OC)c4)cc2)OCO3)cc1 [C1, N-(3,5-dimethoxyphenyl)-4-(6-(4-(methoxymethyl)benzamido)benzo[d][1,3]dioxol-5-yl)benzamide] | 6.21 ± 0.22% | – | – | –
9 | 17.8 ± 1.24% | – | COCc1ccc(C(=O)Nc2cc3c(cc2-c2ccc(C(=O)N4CCN(C(=O)OC(C)(C)C)CC4)cc2)OCO3)cc1 [C2, Tert-butyl4-(4-(6-(4-(methoxymethyl)benzamido)benzo[d][1,3]dioxol-5-yl)benzoyl)piperazine-1-carboxylate] | 13.5 ± 1.13% | – | – | –
10 | 25.3 ± 2.11% | – | COCc1ccc(C(=O)Nc2cc3c(cc2-c2ccc(C(=O)N4CCN(c5ccc(OC)cc5)CC4)cc2)OCO3)cc1 [C3, 4-(Methoxymethyl)-N-(6-(4-(4-(4-methoxyphenyl)piperazine-1-carbonyl)phenyl)benzo[d][1,3]dioxol-5-yl)benzamide] | 6.62 ± 0.45% | – | – | –
11 | 7.55 ± 0.71% | – | COCc1ccc(C(=O)Nc2cc3c(cc2-c2ccc(C(=O)N4CCN(c5ccccc5OC)CC4)cc2)OCO3)cc1 [C4, 4-(Methoxymethyl)-N-(6-(4-(4-(2-methoxyphenyl)piperazine-1-carbonyl)phenyl)benzo[d][1,3]dioxol-5-yl)benzamide] | 6.77 ± 0.62% | – | – | –
12 | 5.92 ± 0.32% | – | COCc1ccc(C(=O)Nc2cc3c(cc2-c2ccc(C(=O)N4CCN(CCc5ccccc5)CC4)cc2)OCO3)cc1 [C5, 4-(Methoxymethyl)-N-(6-(4-(4-phenethylpiperazine-1-carbonyl)phenyl)benzo[d][1,3]dioxol-5-yl)benzamide] | 5.63 ± 0.37% | – | – | –
13 | 3.39 ± 1.67% | – | COCc1ccc(C(=O)Nc2cc3c(cc2-c2ccc(C(=O)N4CCN(c5ccccc5)CC4)cc2)OCO3)cc1 [C6, 4-(Methoxymethyl)-N-(6-(4-(4-phenylpiperazine-1-carbonyl)phenyl)benzo[d][1,3]dioxol-5-yl)benzamide] | 6.15 ± 0.26% | – | – | –
14 | 33.4 ± 1.52% | – | COCc1ccc(C(=O)Nc2cc3c(cc2-c2ccc(C(=O)N4CCN(c5ccc(F)cc5)CC4)cc2)OCO3)cc1 [C7, N-(6-(4-(4-(4-fluorophenyl)piperazine-1-carbonyl)phenyl)benzo[d][1,3]dioxol-5-yl)-4-(methoxymethyl)benzamide] | 12.8 ± 1.07% | – | – | –
15 | 25.7 ± 1.2% | – | COCc1ccc(C(=O)Nc2cc3c(cc2-c2ccc(C(=O)N4CCN(c5ccc(Cl)cc5)CC4)cc2)OCO3)cc1 [C8, N-(6-(4-(4-(4-chlorophenyl)piperazine-1-carbonyl)phenyl)benzo[d][1,3]dioxol-5-yl)-4-(methoxymethyl)benzamide] | 14.5 ± 1.22% | – | – | –
16 | 3.75 ± 0.33% | – | COCc1ccc(C(=O)Nc2cc3c(cc2-c2ccc(C(=O)Nc4ccc(N5CCN(C)CC5)cc4)cc2)OCO3)cc1 [C9, 4-(Methoxymethyl)-N-(6-(4-((4-(4-methylpiperazin-1-yl)phenyl)carbamoyl)phenyl)benzo[d][1,3]dioxol-5-yl)benzamide] | 6.22 ± 0.24% | – | – | –
17 | 5.48 ± 0.2% | – | COCc1ccc(C(=O)Nc2cc3c(cc2-c2ccc(C(=O)NC(C)C)cc2)OCO3)cc1 [C10, N-isopropyl-4-(6-(4-(methoxymethyl)benzamido)benzo[d][1,3]dioxol-5-yl)benzamide] | 6.76 ± 0.18% | – | – | –
